The values below come from patent US5976523A, “Method for healing compromised tissues using pyrimidine derivatives” (Mitsui Pharmaceuticals, Inc., priority 1995, dated 1999).

For one assay, the system named is PDGF-A mRNAs. As to the kind of experiment: Polysome distribution (translation) of PDGF-A mRNAs in rat SMCs. The class given is cell-based. How it is done: SMCs were prepared following the method proposed by Ross and Klebanoff in "J. Cell. […] A rat thoracic aorta was excised. After the tunica externa was peeled off, the tunica media and the tunica intima were minced into 2-3 mm^2. The minced sections were placed standstill in a 25-cm^2 flask which contained Waymouth's MB 752/1 medium containing 10% FBS and 80 ng/ml of gentamycin (product of Schering-Plough Corp.), followed by incubation at 37° C. for 2 to 3 weeks in the presence of 5% carbon dioxide gas (primary culture). The same volume of a trypsin-EDTA solution was added to the flask. After the sections were treated at 37° C. for 5 minutes to peel off cells, the cells were diluted with 10% FBS-Waymouth's MB 752/1 medium and then subcultured (second generation). Subculture was successively conducted likewise whenever the SMC became confluent. In the following experiments, the cells from the 5th generation to the 12th generation were employed. After reach in confluence of cells, the cultured SMCs were cultured for 2 days in a serum-free medium to avoid influence of serum. The SMCs were then added with thrombin (1.0 U/ml) or serotonin (5 μM), followed by incubation at 37° C. for 6 hours under which bring about induction of PDGF-A mRNAs at the maximum. To prevent dissociation of ribosomes and mRNAs, cycloheximide (100 μg/ml) was added 5 minutes before cells were collected. […] Biol. Chem.", 267, 508 ff, 1992 with slight modifications. The cells, which had been collected by the treatment with trypsin, were washed with PBS containing cycloheximide (100 μg/ml). A cell precipitate was then added with 500 μl of a high-salt lysis buffer (20 mM Tris-HCl pH 7.5, 250 mM NaCl, 5 mM MgCl2, 0.1% Noni det P-40, 0.2% DOC) for homogenization. The homogenate was centrifuged under 12,000×g at 4° C. for 10 minutes. The resulting supernatant was added with 67 μl of a heparine mix (7.4 mg/ml heparine, 1.1M NaCl, 15 mM DTT and RNasin). 200 μl of the extract were layered on 5 ml of 0.5-1.25M linear sucrose gradient (which contained 20 mM Tris-HCl pH 7.4, 10 mM NaCl, 3 mM MgCl2), followed by centrifugation under 45,000 rpm for 90 minutes in a "Hitachi […]". While monitoring the absorbance at 260 nm, ten (10) fractions were obtained. […] Subsequent to incubation at 37° C. for 1 hour, each fraction was extracted once with 1/2 volume of phenol, twice with 1/2 volume aliquots of chloroform, and once with the equal volume of chloroform, whereby proteins were removed. The water layer was added with glycogen (20 μg/ml) as a coprecipitant and then with 0.03M of sodium acetate, and RNAs were caused to precipitate with 2 volumes of ethanol. After RNAs were incubated at 65° C. for 5 minutes in a solution containing 60% of formamide, 5.9% of formaldehyde and the equal volume of MOPS buffer (10 mM MOPS pH 7.0, 4 mM NaOAc, 0.5 mM EDTA), electrophoresis was conducted across 1.2% agarose gels containing the equal volume of MOPS buffer so that RNAs were. isolated. After the gel was washed with 20 volumes of SSC, RNAs were blotted overnight to a Gene Screen Plus membrane by the capillary method. Fixing of the RNAs was conducted by exposing them for 1 minute at a distance of 10 cm from […]. Using a "QuickHyb Hybridization Solution" (product of Strategene Ltd.), hybridization was conducted following the instruction manual attached to the solution. Results of autoradiography were quantitated with reference to the NIH Image. […]

Assay [1] concerns primary cultured gastric mucosal cells. As to the kind of experiment: Wound repair model with primary cultured gastric mucosal cells. The class given is cell-based, rabbit. The method, then: Primary cultured gastric mucosal cells were prepared by mechanically peeling and mincing the gastric mucosa of a rabbit having a body weight of 2 kg and then digesting the minced gastric mucosa with 0.07% collagenase. The primary cultured gastric mucosal cells were cultured at a cell concentration of 3.3×10^5 cells/ml in F-12 culture medium containing 10% fetal calf serum added therein. For this cultivation, a culture dish (60 mm in diameter) coated with collagen type I was used. […] Using an anti-BrdU antibody, the cells in the S phase were stained to identify proliferated cells.
Their effects on the process of restoration were measured under the above-described parameters. […] In each of the control group and the medicament-added groups, the area of the wounded region was measured at the 0th hour, 12th hour, 24th hour, 36th hour and 48th hour. The measurement results will be given in this order.
The control group and the groups added with the medicament at the respective concentrations were each subjected to the experiment with n=5. The results will each be presented as a (mean±S. D.) mm2. A test of significance was conducted relative to the control group. * stands for p<0.05, ** for p<0.01, *** for p<0.001. A further test of significance was conducted relative to a group added with 10 ng/ml of EGF. + stands for p<0.05, and ++ for <0.01.

The subject of the next assay is bone defect (tibia). Kind of assay: Rat bone defect model, formation of hyaline cartilage matrix. In kind it is in vivo. As to conditions: bFGF (0.5 μg) + compound (0.5 mg) pellet, 7th day, vs bFGF pellet. An excerpt: Action of 2-piperazino-6-methyl-5-oxo-5,6-dihydro(7H)pyrro[3,4-d]pyrimidinemaleate on in vivo chondrogenesis was studied in detail by preparing a rat bone defect model which permits observation of bFGF-derived formation of a hyaline cartilage matrix. Embedment of a bFGF-containing pellet in a bone defect of the model permits easy observation of formation of a hyaline cartilage matrix under the periosteum around the bone defect. Rats were divided into three groups. The rats in one of the groups were each embedded in a formed bone defect (diameter: 2.6 mm) thereof with a hydroxyethyl methacrylate pellet (10 mg) which contained bFGF (0.5 μg). The rats in another one of the groups were each embedded likewise with a hydroxyethyl methacrylate pellet (10 mg) which contained bFGF (0.5 μg) and the invention compound (0.5 mg). The rats in the remaining group, that is, a control group were each embedded similarly with a pellet which contained physiological saline. After the rats in all the three groups were sacrificed seven days later, action of bFGF or the invention compound on the process of chondrogenesis on enchondral ossification around the bone defect was investigated. On the 7th day after the formation of the bone defect, the tibia of each rat was histologically examined around the bone defect.

Where a name gives a salt, the structure may show the parent alone.

For the compound `CN1Cc2nc(N3CCNCC3)ncc2C1=O` [Compound B, 2-piperazino-6-methyl-5-oxo-5,6-dihydro(7H)pyrro[3,4-d]pyrimidine maleate], the “translation state of 1.3 kb PDGF-A mRNAs” value in the assay with PDGF-A mRNAs (compound) is recorded as “in a translated form”. Moreover, the “translation state of 1.7 kb PDGF-A mRNAs” value with PDGF-A mRNAs (compound, serum-free medium) was “converted into a translated form”. The “translation state of PDGF-A mRNAs” value with PDGF-A mRNAs (thrombin + compound) was “converted into a translated form”. Also, the “area of the wounded region (mean±S.D.)” value in assay [1] (EGF + 0.01 mM compound, 0th hour) was found to be 2.06±0.04 mm2; in assay [1] (EGF + 0.01 mM compound, 12th hour), 0.92±0.05 mm2; in assay [1] (EGF + 0.01 mM compound, 24th hour), 0.38±0.05 mm2; in assay [1] (EGF + 0.01 mM compound, 36th hour), 0.07±0.04 mm2; in assay [1] (EGF + 0.01 mM compound, 48th hour) it was 0 mm2; in assay [1] (EGF + 0.1 mM compound, 0th hour), 2.06±0.04 mm2. Further, the “area of the wounded region (mean±S.D.)” value in assay [1] (EGF + 0.1 mM compound, 12th hour) came to 0.83±0.05 mm2; in assay [1] (EGF + 0.1 mM compound, 24th hour), 0.29±0.07 mm2; in assay [1] (EGF + 0.1 mM compound, 36th hour) it was 0 mm2; in assay [1] (EGF + 0.1 mM compound, 48th hour), 0 mm2. In addition, the “effect on EGF-induced acceleration of cell restoration” value in assay [1] (compound 0.01-0.1 mM with EGF) is on record as “further promoted the EGF-induced acceleration of cell restoration in a concentration-dependent fashion”. Besides, the repairing effects result in assay [1] (compound alone 0.01-0.1 mM, absence of EGF) is listed as “did not show repairing effects in the absence of EGF”. For the same compound, the “formation of a hyaline cartilage matrix” value with bone defect (tibia) is given as “in an amount apparently larger than that formed in the group embedded with the bFGF-containing pellet”.
